# From US20260209193A1, “NOVEL INHIBITORS OF DNA DAMAGE RESPONSES FOR CANCER THERAPY” (The Regents of the University of California, priority 2022, published 2026)
# Target: T1, PARP1 (Homo sapiens, UniProt P09874)
# T1 construct: endogenous in cells; host or cells: PC3
# Test: PARP1 trapping, chromatin fractionation (chromatin-bound fraction)
# Type: cell-based
# Conditions: PC3 cells
# Excerpt: The trapped PARP1 forms a toxic lesion and stalls the progress of replication forks. The replication fork collapses in BRCA1/2-deficient cancer cells, and then results in cell death. […] Six cancer cell lines were used in this assay, including two breast cancer cell lines, BRCA1-mutunt SUM149PT-BRCA1mut and SUM149PT-BRCA1rev where deleterious BRCA1 mutation is reverted to form a functional BRCA1, two ovarian cancer cell lines, BRCA1-null UWB1.289 and UWB1.289+BRCA1, a stable cell line in which wild-type BRCA1 function has been restored, and two prostate cancer cell lines, enzalutamide resistant C4-2B/MR which is homologous recombination (HR)-deficient due to Rad51 mutation, and enzalutamide insensitive PC3 which is HR-proficient.
# T1 sequence (P09874 whole entry, species assumed): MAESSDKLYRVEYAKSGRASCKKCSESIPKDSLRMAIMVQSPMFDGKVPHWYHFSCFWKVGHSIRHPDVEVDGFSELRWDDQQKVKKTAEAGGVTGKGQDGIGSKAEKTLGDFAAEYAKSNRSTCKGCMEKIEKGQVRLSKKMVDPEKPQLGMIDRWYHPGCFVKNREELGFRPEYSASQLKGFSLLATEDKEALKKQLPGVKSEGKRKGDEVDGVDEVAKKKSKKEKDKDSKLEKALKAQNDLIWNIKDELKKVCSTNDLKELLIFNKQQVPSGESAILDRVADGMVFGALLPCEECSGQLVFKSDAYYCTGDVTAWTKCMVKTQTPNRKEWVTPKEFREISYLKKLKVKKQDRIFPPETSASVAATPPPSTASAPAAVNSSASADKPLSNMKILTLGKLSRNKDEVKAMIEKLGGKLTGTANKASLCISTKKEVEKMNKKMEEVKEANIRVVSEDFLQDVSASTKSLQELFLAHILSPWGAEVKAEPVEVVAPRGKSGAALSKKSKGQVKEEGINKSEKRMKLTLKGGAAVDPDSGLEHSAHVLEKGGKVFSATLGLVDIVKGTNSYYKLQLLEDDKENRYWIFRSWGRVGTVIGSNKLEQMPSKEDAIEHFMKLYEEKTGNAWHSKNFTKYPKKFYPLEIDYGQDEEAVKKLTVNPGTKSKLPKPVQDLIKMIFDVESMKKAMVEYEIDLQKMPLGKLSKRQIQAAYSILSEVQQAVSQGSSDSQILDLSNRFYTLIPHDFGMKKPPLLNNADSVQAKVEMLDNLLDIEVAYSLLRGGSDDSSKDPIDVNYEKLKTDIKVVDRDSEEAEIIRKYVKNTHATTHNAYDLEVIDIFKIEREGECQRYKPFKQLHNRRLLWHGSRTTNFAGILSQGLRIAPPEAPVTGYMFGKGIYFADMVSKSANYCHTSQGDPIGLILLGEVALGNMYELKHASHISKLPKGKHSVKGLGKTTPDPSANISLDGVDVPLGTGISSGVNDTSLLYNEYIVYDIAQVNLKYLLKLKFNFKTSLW
Compound,PARP1-trapping potency relative to JC099 (PARP1 in the chromatin-bound fraction),PARP1 trapped on DNA lesions (0.5 μM),PARP1 trapped on DNA lesions (0.3 μM),also measured
"3-amino-N-(3,5-bis((E)-3,4-difluorobenzylidene)-4-oxocyclohexyl)-5-(4-(isopropylsulfonyl)phenyl)pyrazine-2-carboxamide [JCS089]",their potencies were less than JC099,–,–,–
"CCOCCOc1ccc(C(=O)NC2C/C(=C\c3ccc(F)c(F)c3)C(=O)/C(=C/c3ccc(F)c(F)c3)C2)cc1 (centres unmarked) [JCS010, N-(3,5-Bis((E)-3,4-difluorobenzylidene)-4-oxocyclohexyl)-4-(2-ethoxyethoxy)benzamide]",–,–,–,PARP1 trapped on DNA lesions (0.5 μM and 2 μM): trapped
"CCCN(CCC)CCOc1ccc(C(=O)NC2C/C(=C\c3ccc(F)c(F)c3)C(=O)/C(=C/c3ccc(F)c(F)c3)C2)cc1 (centres unmarked) [JCS011, N-(3,5-Bis((E)-3,4-difluorobenzylidene)-4-oxocyclohexyl)-4-(2-(dipropylamino)ethoxy)benzamide]",higher potency in PARP1-trapping,–,–,PARP1 trapped on DNA lesions (0.5 μM and 2 μM): trapped
"CC(C)N(CCOc1ccc(C(=O)NC2C/C(=C\c3ccc(F)c(F)c3)C(=O)/C(=C/c3ccc(F)c(F)c3)C2)cc1)C(C)C (centres unmarked) [JCS013, N-(3,5-Bis((E)-3,4-difluorobenzylidene)-4-oxocyclohexyl)-4-(2-(diisopropylamino)ethoxy)benzamide]",higher potency in PARP1-trapping,–,–,PARP1 trapped on DNA lesions (0.5 μM and 2 μM): trapped
O=C1/C(=C/c2ccc(F)c(F)c2)CC(NC(=O)c2ccc(OCCN3CCCCC3)cc2)C/C1=C\c1ccc(F)c(F)c1 (centres unmarked) [JCS16],–,trapped,–,–
"CCCCCN(CCCCC)CCOc1ccc(C(=O)NC2C/C(=C\c3ccc(F)c(F)c3)C(=O)/C(=C/c3ccc(F)c(F)c3)C2)cc1 (centres unmarked) [JCS023, N-(3,5-Bis((E)-3,4-difluorobenzylidene)-4-oxocyclohexyl)-4-(2-(dipentylamino)ethoxy)benzamide]",–,trapped,–,PARP1 trapped on DNA lesions (0.5 μM and 2 μM): trapped
"O=C1/C(=C/c2ccc(F)c(F)c2)CC(NC(=O)c2ccc(NCCN3CCCCC3)cc2)C/C1=C\c1ccc(F)c(F)c1 (centres unmarked) [JCS028, N-(3,5-Bis((E)-3,4-difluorobenzylidene)-4-oxocyclohexyl)-4-((2-(piperidin-1-yl)ethyl)amino)-benzamide]",–,trapped,–,PARP1 trapped on DNA lesions (0.5 μM and 2 μM): trapped
"COCCCNCCOc1ccc(C(=O)NC2C/C(=C\c3ccc(F)c(F)c3)C(=O)/C(=C/c3ccc(F)c(F)c3)C2)cc1 (centres unmarked) [JCS030, N-(3,5-Bis((E)-3,4-difluorobenzylidene)-4-oxocyclohexyl)-4-(2-((3-methoxypropyl)amino)ethoxy)-benzamide]",–,trapped,–,–
"COCCNCCOc1ccc(C(=O)NC2C/C(=C\c3ccc(F)c(F)c3)C(=O)/C(=C/c3ccc(F)c(F)c3)C2)cc1 (centres unmarked) [JCS031, N-(3,5-Bis((E)-3,4-difluorobenzylidene)-4-oxocyclohexyl)-4-(2-((2-methoxyethyl)amino)ethoxy)-benzamide]",–,trapped,–,–
"CCCCNCCOc1ccc(C(=O)NC2C/C(=C\c3ccc(F)c(F)c3)C(=O)/C(=C/c3ccc(F)c(F)c3)C2)cc1 (centres unmarked) [JCS034, N-(3,5-Bis((E)-3,4-difluorobenzylidene)-4-oxocyclohexyl)-4-(2-(butylamino)ethoxy)benzamide]",higher potency in PARP1-trapping,trapped,–,–
NCCOc1ccc(C(=O)NC2C/C(=C\c3ccc(F)c(F)c3)C(=O)/C(=C/c3ccc(F)c(F)c3)C2)cc1 (centres unmarked) [JCS036],–,trapped,–,–
"C=CCN(CC=C)CCOc1ccc(C(=O)NC2C/C(=C\c3ccc(F)c(F)c3)C(=O)/C(=C/c3ccc(F)c(F)c3)C2)cc1 (centres unmarked) [JCS037, N-(3,5-Bis((E)-3,4-difluorobenzylidene)-4-oxocyclohexyl)-4-(2-(diallylamino)ethoxy)benzamide]",–,trapped,–,–
"CN1CCN(CCOc2ccc(C(=O)NC3C/C(=C\c4ccc(F)c(F)c4)C(=O)/C(=C/c4ccc(F)c(F)c4)C3)cc2)CC1 (centres unmarked) [JCS038, N-(3,5-Bis((E)-3,4-difluorobenzylidene)-4-oxocyclohexyl)-4-(2-(4-methylpiperazin-1-yl)ethoxy)benz-amide]",–,–,trapped,–
"O=C1/C(=C/c2ccc(F)c(F)c2)CC(NC(=O)c2ccc(NCCN3CCOCC3)cc2)C/C1=C\c1ccc(F)c(F)c1 (centres unmarked) [JCS042, N-(3,5-Bis((E)-3,4-difluorobenzylidene)-4-oxocyclohexyl)-4-((2-morpholinoethyl)amino)benzamide]",–,–,trapped,–
"O=C1/C(=C/c2ccc(F)c(F)c2)CC(NC(=O)c2ccc(NCCCN3CCCC3)cc2)C/C1=C\c1ccc(F)c(F)c1 (centres unmarked) [JCS044, N-(3,5-Bis((E)-3,4-difluorobenzylidene)-4-oxocyclohexyl)-4-((3-(pyrrolidin-1-yl)propyl)amino)benz-amide]",–,–,trapped,–
"O=C(CN1CCOCC1)Nc1ccc(C(=O)NC2C/C(=C\c3ccc(F)c(F)c3)C(=O)/C(=C/c3ccc(F)c(F)c3)C2)cc1 (centres unmarked) [JCS047, N-(3,5-bis((E)-3,4-difluorobenzylidene)-4-oxocyclohexyl)-4-(2-morpholinoacetamido)benzamide]",–,–,trapped,–
"O=C(CN1CCCC1=O)Nc1ccc(C(=O)NC2C/C(=C\c3ccc(F)c(F)c3)C(=O)/C(=C/c3ccc(F)c(F)c3)C2)cc1 (centres unmarked) [JCS048, N-(3,5-bis((E)-3,4-difluorobenzylidene)-4-oxocyclohexyl)-4-(2-(2-oxopyrrolidin-1-yl)acetamido)benzamide]",higher potency in PARP1-trapping,–,trapped,–
"O=C1/C(=C/c2ccc(F)c(F)c2)CC(NC(=O)c2ccc(NC(=O)N3CCCCC3)cc2)C/C1=C\c1ccc(F)c(F)c1 (centres unmarked) [JCS053, N-(4-((3,5-bis((E)-3,4-difluorobenzylidene)-4-oxocyclohexyl)carbamoyl)phenyl)piperidine-1-carboxamide]",higher potency in PARP1-trapping,–,trapped,–
"O=C1/C(=C/c2ccc(F)c(F)c2)CC(NC(=O)c2ccc(NC(=O)N3CCCC3)cc2)C/C1=C\c1ccc(F)c(F)c1 (centres unmarked) [JCS054, N-(4-((3,5-bis((E)-3,4-difluorobenzylidene)-4-oxocyclohexyl)carbamoyl)phenyl)pyrrolidine-1-carboxamide]",higher potency in PARP1-trapping,–,trapped,–
"O=C1/C(=C/c2ccc(F)c(F)c2)CC(NC(=O)c2ccc(NC(=O)N3CCN(C(=O)C4CC4)CC3)cc2)C/C1=C\c1ccc(F)c(F)c1 (centres unmarked) [JCS057, N-(4-((3,5-bis((E)-3,4-difluorobenzylidene)-4-oxocyclohexyl)carbamoyl)phenyl)-4-(cyclopropanecarbonyl)piperazine-1-carboxamide]",–,–,trapped,–
"CCCN(CCC)CCNc1ccc(C(=O)NC2C/C(=C\c3ccc(F)c(F)c3)C(=O)/C(=C/c3ccc(F)c(F)c3)C2)cc1 (centres unmarked) [JCS065, N-(3,5-Bis((E)-3,4-difluorobenzylidene)-4-oxocyclohexyl)-4-((2-(dipropylamino)ethyl)amino)benz-amide]",higher potency in PARP1-trapping,–,–,–
